The source of these data is patent US20130345266A1, “PEST CONTROL COMPOSITION AND PEST CONTROL METHOD” (SUMITOMO CHEMICAL COMPANY, LIMITED, priority 2011, published 2013).

Molecules are shown by their SMILES.

The assay has as its system common mosquito (Culex pipiens pallens). Nature of the assay: Test Example 2: knock down test, forced contact with treated glass petri dish. The format is in vivo. Particulars: 5 minutes after release, ten female adults, 3 min contact. On the procedure: Acetone-diluted solutions were prepared so that predetermined dosage of the Guanidine Compound and the ester compound B on glass plates indicated in Table 1 would be applied. The acetone-diluted solutions (0.5 ml) were treated on the underside of glass petri dishes with a diameter of 7 cm uniformly and air-dried. Ten female adults of common mosquito (Culex pipiens pallens) were collected by means of a pocket aspirator and placed into the petri dish, then contacted compulsorily with the treated underside of glass petri dishes by covering with a lucid plate made of polyvinyl chloride.
Three minutes after covering, said common mosquitoes were released in nyron cage (size: 16.5 cm×15.5 cm×22 cm). At a given period of time after releasing, the number of knocked down insects was counted and a knock down rate was calculated.

Take `CN/C(=N\[N+](=O)[O-])NCc1cnc(Cl)s1` [reference 1, (E)-1-(2-chloro-1,3-thiazol-5-ylmethyl)-3-methyl-2-nitroguanidine]: the “Knock down rate (%) after 5 minutes” value is reported as 10% (Guanidine Compound alone 0.000125 mg/plate), 10% (Guanidine Compound alone 0.00025 mg/plate), 10% (Guanidine Compound alone 0.0005 mg/plate) and 20% (Guanidine Compound alone 0.00125 mg/plate).
As to `C/C=C\[C@@H]1[C@@H](C(=O)OCc2c(F)c(F)c(COC)c(F)c2F)C1(C)C` (relative stereo) [reference 4, 2,3,5,6-tetrafluoro-4-methoxymethylbenzyl=(1R)-trans-3-(1-propenyl(Z))-2,2-dimethylcyclopropanecarboxylate], the “Knock down rate (%) after 5 minutes” value by setting is: (ester compound B alone 0.000125 mg/plate) 10%; (ester compound B alone 0.00025 mg/plate) 20%.
